Assay results reported in patent publication US20060154919A1, “Combination of a glycine transporter (GLYT1) inhibitor and an antipsychotic for the treatment of symptoms of schizophrenia as well as its preparation and use thereof” (priority 2004, published 2006).
“Also recorded” adds a separate entry of the source.

Key:
[1] = test system: extracellular dopamine in the striatum; assay: Microdialysis: extracellular dopamine in the rat striatum; assay type: in vivo; settings: for dose-response of extracellular dopamine: ascending doses (COMPOUND NO. 1 0.63, 2.5, 10 mg/kg; risperidone 0.16, 0.63, 2.5 mg/kg)
Method: (§1) Compounds (as a Na salt) were stored, dissolved, and administered according to detailed instructions accompanying each compound. Compounds were dissolved in a solvent consisting of 10% BCD (beta cyclodextrin) and administered subcutaneously.
(§2) Male Sprague Dawley rats weighing 275-325 g at the start of the experiment were individually housed in a temperature-controlled colony room with a 12-h light/dark cycle. Food and water was available ad libitum throughout the experiment. The housing conditions and care of the animals were in accordance with the “Guide for the Care and Use of Laboratory Animals” (Institute of Laboratory Animal Resources on Life Sciences, National Research Council, 1996).
(§3) Guide cannula were stored in 95% ETOH prior to surgery, whereas surgical tools underwent heat sterilization (250 °C) immediately before each surgery. Rats were anesthetized using a ketamine hydrochloride (100 mg/kg, IP) xylazine (12 mg/kg) mixture. After adequate anesthesia had been determined (using toe and tail pinch procedures), rats were placed into a stereotaxic instrument. The skull region was wiped with a 2% Betadine solution and a rostrocaudal incision was made to expose the surface of the skull. Bilateral guide cannula (20 gauge; Plastics One) were chronically implanted over the medial striatum (A/P: +0.5, M/L: ±2.5, D/V: −2.0; Paxinos & Watson, 1998) and secured using four skull screws and cranioplastic cement. The cannula need to be implanted at an angle to obtain the minimum inter-cannula distance needed for our probe leash used during microdialysis sampling. Following surgery, body temperature was maintained using a heating pad and the rats were monitored until fully conscious. Rats were then individually housed and assessed daily by monitoring general activity, body weight, and feces. Rats were monitored for signs of an infection and cefazolin (100 mg/kg; intramuscular) was available as needed. Notation was made of any animal administered antibiotic.
(§4) Rats were given at least five days to recover prior to microdialysis sampling. Approximately 18 hr prior to sampling, a microdialysis probe (24 gauge; 2-3 mm exposed membrane; 13000 MWCO) encased in a spring leash and attached to a liquid swivel connected to a balancing arm was inserted into the guide cannula of an awake rat. The probe was secured in place by screwing a threaded portion of the probe leash onto the guide cannula. The rat was then placed into a behavioral chamber (Omnitech, Columbus Ohio) equipped with a fan and house light (10W), and food and water was available ad libitum. On the day of the experiment, dialysis buffer consisting of 5 mM glucose, 140 mM NaCl, 1.4 mM CaCl2, 1.2 mM MgCl2, and 0.15% phosphate buffer saline, pH 7.4, was perfused through the probe (2.0 μl/min) at least two hr prior to sample collection. Twenty-min dialysis samples were then collected for two hr to determine basal glycine levels. Rats were then injected (intraperitoneal) with vehicle or one dose of the test compound, and 30-min samples were collected for up to 10 hr. Samples were split for separate chromatographic evaluation of glycine and dopamine, and frozen (−80 °C) until analyzed.
(§5) Rats, with the dialysis probes in place, were given an overdose of pentobarbital, and the brains fixed by intracardiac infusion of PBS-formalin. Coronal brain sections were 100 μM thick and stained with cresyl violet to verify probe placements. Probes were left in place as the animal was perfused in order to check for the presence of blood in the probe tract.
For dopamine analysis, samples were placed in an ESA (Chelmsford, Mass.) Model 540 autosampler connected to an HPLC system with electrochemical detection. Separation was achieved by pumping the samples through a 15 cm C18 reversed phase column (ESA, Inc.) and then samples were reduced/oxidized using coulometric detection.

[2] = test system: extracellular glycine in the striatum; assay: Microdialysis: extracellular glycine in the rat striatum; assay type: in vivo; settings: for dose-response of extracellular glycine: ascending doses (COMPOUND NO. 1 0.63, 2.5, 10 mg/kg; risperidone 0.16, 0.63, 2.5 mg/kg)
Method: as §1, §2, §3, §4, §5
The concentrations of glycine and dopamine in dialysate samples was determined using a Waters Alliance 2690 HPLC system with fluorometeric detection or an ESA coulometric electrochemical detection HPLC system, respectively. Dialyis samples were split between the two systems enabling both dopamine and glycine to be measured in each sample. A Waters Spherisorb ODS2 column (5 μM, 4.6×250 mm) was used to separate the amino acids.

[3] = risperidone alone, 0.16 mg/kg (lowest dose)
[4] = COMPOUND NO. 1 alone, 10 mg/kg (highest dose), 10 mg/kg

| SMILES | dose-response of extracellular dopamine [1] | threshold dose for elevation in extracellular dopamine ([1]; risperidone alone) [mg/kg] | elevation in extracellular dopamine [1, 3] | expected increase in extracellular dopamine ([1]; risperidone alone, 1.0 mg/kg, expected from FIGS. 1C-1D) [%] | increase in extracellular dopamine ([1]; risperidone alone, two higher doses (0.63 and 2.5 mg/kg)) | dose-response of extracellular glycine [2] | threshold dose for elevation in extracellular glycine ([2]; risperidone alone) [mg/kg] | effect on extracellular glycine [2, 3] | increase in extracellular glycine ([2]; risperidone alone, 2.5 mg/kg (highest dose)) [fold] | effect on extracellular glycine ([2]; risperidone alone, at the dose examined in the combination (1.0 mg/kg)) | reduction in extracellular dopamine ([1]; COMPOUND NO. 1 alone, 0.63 mg/kg (lowest dose)) [%] | effect on extracellular dopamine ([1]; COMPOUND NO. 1 alone, 0.63 mg/kg (lowest dose), 0.63 mg/kg) | effect on extracellular dopamine ([1]; COMPOUND NO. 1 alone, 2.5 mg/kg) | effect on extracellular dopamine [1, 4] | increase in extracellular glycine [2, 4] [fold] |
| --- | --- | --- | --- | --- | --- | --- | --- | --- | --- | --- | --- | --- | --- | --- | --- |
| Cc1nc2n(c(=O)c1CCN1CCC(c3noc4cc(F)ccc34)CC1)CCCC2 [risperidone, 3-[2-[4-(6-fluoro-1,2-benzisoxazol-3-yl)piperidino]ethyl]-2-methyl-6,7,8,9-tetrahydro-4H-pyrido-[1,2-a]pyrimidin-4-one, reference compound] | dose-dependent elevation | 0.16 | approximately 50% | 300 | 3-4 fold | dose-dependent elevation | 0.16 | without effect | 2.5 | modest rise | – | – | – | – | – |
| CN(C/C=C(/C#Cc1ccc(-c2ccoc2)cc1)c1ccccc1)CC(=O)O [COMPOUND NO. 1] | biphasic | – | – | – | – | dose-dependent increase; also recorded: dose-dependent elevation | – | – | – | – | ~50 | significant reduction; also recorded: reduced extracellular dopamine | normalized; also recorded: returned to normal | remained unaltered; also recorded: without effect | 2.5 |
